Laboratory results from paper PMC12196235, “Enhancing the Pharmacological Properties of Triterpenes Through Acetylation: An Anticancer and Antioxidant Perspective” (Molecules, 2025).
“And” between values parts separate entries of the source, which are not always exact repeats. Identical values can stand only once. Like-named read-outs stand apart in the source and are kept apart here.

Columns and labels:
[1] = test system: HeLa, KB, MCF-7, A-549, PC-3 and SKOV-3; assay: MTT assay, summary over the cancer cell lines; type: cell-based, human; conditions: classification by IC50 (good ≤ 10 μM, moderate 10–30 μM, ref 83)
Experimental: (§1) All the cell lines and mediums were obtained from the American Type Culture Collection (ATCC) supplied by LGC-Standards (Lomianki, Poland). Human cancer cell lines were cultured as follows: HeLa (human cervix carcinoma) and KB (human oral squamous carcinoma) lines were cultured in DMEM (Dulbecco’s Modified Eagle’s Medium); MCF-7 (human breast carcinoma) and A-549 (human lung carcinoma) were cultured in RPMI 1640 medium; PC-3 (human prostate carcinoma) was cultured in F-12K medium; SKOV-3 (human ovarian cystadenocarcinoma) was cultured in McCoy’s modified medium; HDF (human normal dermal fibroblasts) was cultured in Fibroblast Basal Medium. Each medium was supplemented with 10% fetal bovine serum, 1% L- glutamine and 1% penicillin/streptomycin solution. The cell lines were kept in an incubator at 37 °C.
(§2) All the tested cell lines (HeLa, KB, MCF-7, A-549, PC-3, SKOV-3 and HDF) were subjected to MTT assay. In short, this assay is based on the reaction between mitochondria enzymes (dehydrogenases) of tested cell lines and 3-(4,5-dimethylthiazol-2-yl)-2,5-diphenyltetrazolium bromide (MTT). The final product of this reaction gives violet formazan crystals. The number of live cells is proportional to the amount of formazan and is represented by the violet dye reagent. The details of the experiments are given in [19].

[2] = CUPRAC antioxidant assay; conditions: calculated from Trolox standard curve
Experimental: (§3) The results are presented as % inhibition of the copper(II) ions and Trolox equivalent calculated from the standard curve (Figure 9) and as % inhibition of the DPPH radical and Trolox equivalent, calculated from the standard curve (Figure 10).
(§4) The CUPRAC reagent (7.5 mM ethanolic 96% neocuproine solution, 10 mM CuCl2 × H2O solution and an ammonium acetate buffer of pH 7.0) and DPPH reagent (2,2-diphenyl-1-picrylhydrazyl 0.2 mM solution) were applied.
(§5) The CUPRAC method measures the reducing power of a sample by quantifying its ability to convert the Cu-neocuproine reagent complex to the Cu(I) form. In contrast, the DPPH assay relies on the ability of an antioxidant to donate a hydrogen atom or an electron to the stable DPPH radical, resulting in its reduction and subsequent color change. The results are presented as % inhibition of the copper(II) ions and Trolox equivalent calculated from the standard curve (Figure 9) and as % inhibition of the DPPH radical and Trolox equivalent, calculated from the standard curve (Figure 10). The spectroscopic detection in CUPRAC and DPPH assays was conducted with Synergy H1 Multi-Mode Microplate Reader (BioTek Instruments, Inc., Winooski, VT, USA). The details of the experiments are given in [102].

[3] = DPPH antioxidant assay; conditions: calculated from Trolox standard curve
Experimental: as §3, §4, §5

[4] = test system: SKOV-3 (human ovarian carcinoma); conditions: MTT assay, data published earlier, read-out: IC50 (±SD), SKOV-3; cited from earlier work
[5] = test system: HDF (human dermal fibroblasts); conditions: MTT assay, normal dermal fibroblasts; data published earlier; read-out: IC50 (±SD), HDF; cited from earlier work
[6] = test system: HSV-1/153 (Herpes simplex virus type 1 ACV-resistant strain); conditions: ref 15; read-out: antiviral EC50 (HSV-1/153); cited from earlier work
[7] = test system: HSV-1/106 (Herpes simplex virus type 1 ACV-resistant strain); conditions: ref 15; read-out: antiviral EC50 (HSV-1/106); cited from earlier work
[8] = test system: HSV-1/Blue (Herpes simplex virus type 1 ACV-resistant strain); conditions: ref 15; read-out: antiviral EC50 (HSV-1/Blue); cited from earlier work
[9] = test system: Staphylococcus aureus; conditions: ref 16; cited from earlier work
[10] = test system: Escherichia coli; conditions: ref 16; cited from earlier work
[11] = test system: Salmonella typhi; conditions: ref 16; cited from earlier work
[12] = test system: KB (human oral squamous carcinoma); conditions: ref 104; cited from earlier work
[13] = test system: Hep-G2 (human hepatocellular carcinoma); conditions: cited from earlier work
[14] = test system: HCT-116 (human colorectal carcinoma); conditions: ref 20; cited from earlier work
[15] = test system: HT-29 (human colorectal adenocarcinoma); conditions: ref 105; read-out: IC50 (HT-29); cited from earlier work
[16] = test system: A-549 (human lung carcinoma); conditions: cited from earlier work
[17] = test system: KB-VIN (multidrug resistant human epidermoid carcinoma); conditions: ref 104; cited from earlier work
[18] = test system: B16-F10 (murine melanoma); conditions: cited from earlier work
[19] = test system: RAW 264.7; conditions: ref 106; cited from earlier work
[20] = test system: J774A.1 (macrophage-like cell line); conditions: ref 106; cited from earlier work
[21] = test system: HeLa (human cervical epithelioid carcinoma); assay: MTT assay, HeLa; type: cell-based; conditions: IC50 HDF / IC50 HeLa
Experimental: as §1, §2

[22] = test system: KB (human oral squamous carcinoma); assay: MTT assay, KB; type: cell-based; conditions: IC50 HDF / IC50 KB
Experimental: as §1, §2

[23] = test system: MCF-7 (human breast carcinoma); assay: MTT assay, MCF-7; type: cell-based; conditions: IC50 HDF / IC50 MCF-7
Experimental: as §1, §2

[24] = test system: A-549 (human lung carcinoma); assay: MTT assay, A-549; type: cell-based; conditions: IC50 HDF / IC50 A-549
Experimental: as §1, §2

[25] = test system: PC-3 (human prostate carcinoma); assay: MTT assay, PC-3; type: cell-based
Experimental: as §1, §2

[26] = test system: SKOV-3 (human ovarian carcinoma); assay: MTT assay, SKOV-3; type: cell-based
Experimental: as §1, §2

[27] = test system: HDF (human dermal fibroblasts); assay: MTT assay, normal HDF; type: cell-based; conditions: Homo sapiens, Fibroblast, read-out: IC50 (±SD), HDF
Experimental: as §1, §2

[28] = test system: HeLa (human cervical epithelioid carcinoma); conditions: MTT assay, data published earlier, read-out: IC50 (±SD), HeLa; cited from earlier work
[29] = test system: KB (human oral squamous carcinoma); conditions: MTT assay, data published earlier; cited from earlier work
[30] = test system: MCF-7 (human breast carcinoma); conditions: MTT assay, data published earlier, read-out: IC50 (±SD), MCF-7; cited from earlier work
[31] = test system: A-549 (human lung carcinoma); conditions: MTT assay, data published earlier, read-out: IC50 (±SD), A-549; cited from earlier work
[32] = test system: MCF-7 (human breast carcinoma); conditions: ref 55; read-out: anticancer IC50 (MCF-7); cited from earlier work
[33] = test system: HeLa (human cervical epithelioid carcinoma); conditions: ref 56; read-out: anticancer IC50 (HeLa); cited from earlier work
[34] = test system: MDA MB-231 (human epithelial adenocarcinoma); design: method as in doi:10.1002/slct.201803101; conditions: ref 56; read-out: anticancer IC50 (MDA MB-231); cited from earlier work

Structure (SMILES): CC1(C)CC[C@]2(C(=O)O)CC[C@]3(C)C(=CC[C@@H]4[C@@]5(C)CC[C@H](O)C(C)(C)[C@@H]5CC[C@]43C)[C@@H]2C1 [1a, oleanolic acid]
- cytotoxic activity class [1]: high or moderately high activity
- Trolox Equivalent, CUPRAC Assay [2]: 0.1031 ± 0.00684 mg/mL
- Trolox Equivalent, DPPH Assay [3]: 0.02633 ± 0.00109 mg/mL
- IC50 [4]: 18.8 µM
- IC50 [5]: 24.9 µM
- EC50 [6]: 13.1 µM
- EC50 [7]: 12.9 µM
- EC50 [8]: 13.1 µM
- antibacterial MBC (Staphylococcus aureus) [9]: 700 µg/mL
- antibacterial MIC (S. aureus) [9]: 95 µg/mL
- antibacterial MBC (Escherichia coli) [10]: 900 µg/mL
- antibacterial MIC (E. coli) [10]: 95 µg/mL
- antibacterial MBC (Salmonella typhi) [11]: 300 µg/mL
- antibacterial MIC (S. typhi) [11]: 65 µg/mL
- IC50 [12]: > 10 µM
- IC50 ([13]; ref 18, 19, read-out: anticancer IC50 (Hep-G2)): 16.2 µM
- IC50 ([13]; ref 105, read-out: IC50 (Hep-G2)): 212 µM
- anticancer IC50 (HCT-116) [14]: anticancer: IC50 = 40 µg × mL^−1 (HCT-116)
- IC50 [15]: 430 µM
- IC50 ([16]; ref 104, read-out: IC50 (A-549)): 6.4 µM
- IC50 [17]: > 10 µM
- IC50 ([18]; ref 105): 106 µM
- IC50 ([18]; ref 107): 106 µM
- IC50 [19]: 41.7 µM
- IC50 [20]: 35.2 µM

Structure (SMILES): C=C(C)[C@@H]1CC[C@]2(C)CC[C@]3(C)[C@H](CC[C@@H]4[C@@]5(C)CC[C@H](O)C(C)(C)[C@@H]5CC[C@]43C)[C@@H]12 [6a, lupeol]
- Selectivity index (SI), HeLa [21]: 0.77
- Selectivity index (SI), KB [22]: 0.57
- Selectivity index (SI), MCF-7 [23]: 0.56
- Selectivity index (SI), A-549 [24]: 0.63
- IC50 ([25]; Homo sapiens, MTT assay, PC-3, read-out: IC50 (±SD), PC-3): 14.5 µM
- Selectivity index (SI), PC-3 ([25]; IC50 HDF / IC50 PC-3): 2.00
- IC50 ([26]; Homo sapiens, SK-OV-3, MTT assay, SKOV-3, read-out: IC50 (±SD), SKOV-3): 14.6 µM
- Selectivity index (SI), SKOV-3 ([26]; IC50 HDF / IC50 SKOV-3): 1.99
- IC50 [27]: 29 µM
- Trolox Equivalent, CUPRAC Assay [2]: 0.136 mg/mL and 0.136 ± 0.00593 mg/mL
- IC50 [28]: 37.7 µM
- IC50 [29]: 51.2 µM
- IC50 [30]: 51.8 µM
- IC50 [31]: 45.7 µM
- IC50 [32]: 80 µM
- IC50 [33]: 31.9 µM
- IC50 ([16]; ref 56, read-out: anticancer IC50 (A-549)): 64.8 µM
- IC50 [34]: 46.1 µM
